According to patent publication US11530181B2, “IL-6 inhibitors and methods of treatment” (University of Florida Research Foundation, Incorporated, priority 2018, dated 2022):
pIC50: −log10 of the molar value.

Legend:
Assay type in all cases: cell-based, human
[1] = system: STAT3 phosphorylation in SUM159 cells; assay: Western blot, STAT3 phosphorylation in SUM159 (IL-6 autocrine); conditions: SUM159, 1-4 μM, 16 h
Method: (§1) Cells were harvested and lysed in cold radioimmunoprecipitation assay (RIPA) lysis buffer containing proteasome inhibitor cocktail and phosphatase inhibitor cocktail. The protein concentrations were determined using the BCA Protein Assay kit. After adding the loading buffer and boiling at 95° C. for 10 minutes, equivalent amounts of proteins were loaded on and separated by SDS-PAGE, and then were transferred to PVDF membranes. Membranes were probed with primary antibodies (1:1000) against phospho-STAT3 (Tyr705), STAT3, phospho-STAT1 (Tyr701), STAT1, phospho-STAT6 (Tyr 641), STAT6, and GAPDH, respectively, and horseradish peroxidase (HRP)-conjugated secondary antibody (1:10000) (Cell Signaling Technology, Beverly, Mass.). Membranes were analyzed using Enhanced Chemiluminescence Plus reagents and either scanned with the Storm Scanner (Amersham Pharmacia Biotech, Inc., Piscataway, N.J.) or imaged with ChemiDoc MP imaging system (Bio-Rad, Hercules, Calif.). […] The cells were harvested after 30 minutes and analyzed by Western blot.
BxPC-3 and SUM159 cells were seeded in 10 cm plates (1 million cells per plate) and allowed to adhere overnight. […] Then cells were harvested and analyzed by western blotting.
SUM159 cells were seeded in 10 cm plates (1 million cells per plate) and allowed to adhere overnight. […] Then cells were harvested and analyzed by western blotting.

STAT2 phosphorylation = assay: Western blot, STAT2 phosphorylation in MCF7; conditions: MCF7, pre-treatment 2, 3 and 4 hours
Method: FIG. 13. depicts the reduced effect on STAT1, STAT2, STAT4 and STAT6 phosphorylation by LLM418. The MCF7 cells were serum-starved overnight, then treated with LLM4 (15 μM) for 2, 3 and 4 hours. STAT1, STAT2, STAT4 and STAT6 phosphorylation were induced by INF-γ, INF-α and IL-4, respectively. The cells were harvested at 30 minutes and analyzed by western blot assays.
as §1

[2] = system: IL-11 induced STAT3 phosphorylation; assay: Western blot, IL-11 induced STAT3 phosphorylation in MCF7; conditions: MCF7, 15 μM, 2, 3 and 4 hours
Method: as §1
MCF7 breast cancer cells were seeded in 10 cm plates (1 million cells per plate) and allowed to adhere overnight. […] The cells were harvested after 30 minutes and analyzed by western blotting.

[3] = system: MDA-MB-231 breast cancer cell line; assay: MTT cell viability assay, MDA-MB-231; conditions: Homo sapiens; MDA-MB-231 (medium IL-6), 48 h, 0% FBS medium
Method: Human breast cancer cell lines MCF7, MDA-MB-231 and SUM159 were maintained in Dulbecco's modified Eagle medium (DMEM). Human pancreatic cancer cell line BxPC-3 was maintained in RPMI 1640 medium. Human pancreatic cancer cell line Capan-1 was maintained in Iscove's Modified Dulbecco's Medium (IMEM). All media were supplemented with 10% FBS and 1% penicillin/streptomycin, and cells were incubated in a humidified 37° C. incubator with 5% CO2. PE/CA-PJ49 cell line was purchased from external sources and maintained according to manufacturer's protocol.
Cell viability was evaluated by using the MTT assay in triple replicates in one experiment and repeated for three times. Cancer cells were seeded in 96-well plates at a density of 3,000 cells per well. The cells were incubated at 37° C. for a period of 24 hours. […] After incubation for 48 or 72 hours, a stock solution of MTT (0.5 mg/ml) was then added to each well containing the treated cells, followed by incubation at 37° C. for 3 h. After removal of medium, the MTT dye was dissolved with spectrophotometric grade DMSO and the absorbance was read at 570 nm. The IC50 value is determined by interpolation based on the absorbance value halfway between positive and negative controls. […]

[4] = system: SUM159 breast cancer cell line; assay: MTT cell viability assay, SUM159; conditions: Homo sapiens, SUM159, 48 h, SUM159 (high IL-6), 0% FBS medium

Compound | inhibition of STAT3 phosphorylation [1] | effect on STAT2 phosphorylation (STAT2 phosphorylation) | inhibition of IL-11 induced STAT3 phosphorylation [2] | pIC50 [3] | pIC50 [4]
O=C(Nc1cccc(OCCN2CCCCC2)c1)Nc1cccc(-c2ccn[nH]2)c1 [LLM414, 1-(3-(1H-pyrazol-5-yl)phenyl)-3-(3-(2-(piperidin-1-yl)ethoxy)phenyl)urea] | inhibited STAT3 phosphorylation in SUM159 cells |  |  |  | 
O=C(Nc1ccccc1-c1ccn[nH]1)c1ccc(OCCN2CCCCC2)cc1 [LLM418, N-(2-(1H-pyrazol-5-yl)phenyl)-4-(2-(piperidin-1-yl)ethoxy)benzamide] | stronger inhibition than LLM414 | little effect |  |  | 
O=C(Nc1cc(F)ccc1-n1cccc1)c1ccc(OCCCN2CCCCC2)cc1 [LLM4, N-(5-fluoro-2-(1H-pyrrol-1-yl)phenyl)-4-(3-(piperidin-1-yl)propoxy)benzamide] |  |  | also inhibited IL-11 induced STAT3 phosphorylation | 6.01 | 7.40
